Patent US4629491A, “Oxidized sulfur derivatives of diaminophosphinyl compounds as urease inhibitors and urease inhibited urea based fertilizer compositions” (Allied Corporation, priority 1983, dated 1986)

Tested on: soil urease
Experiment: Soil urease inhibition efficacy test (urea remaining after incubation in soil)
Assay type: biochemical
Conditions: 40 micrograms per gram soil, incubated at 25° C. for three days, run in triplicate
Procedure: Efficacy tests were conducted to evaluate the efficacy of certain representative oxidized sulfur derivatives of diaminophosphinyl compounds as urease inhibitors. The inhibition tests were run in New York (Cazenovia Silt loam, pH 7.3) and Wisconsin (Plano silt loam pH 5.3) soils. Evaluations (run in triplicate) consisted of applying 800 micrograms of the test compound in 5 mL of water and 42.8 mg of urea in 1 mL of water to 20 g of air-dry soil in a glass bottle. The bottle was capped with perforated aluminum foil and incubated at 25° C. for three days prior to extraction with 100 mL of a 2M potassium chloride solution containing 0.5 mg of phenylmercuric acetate. The extracts were then analyzed for remaining urea using an autoanalyzer. Percent inhibition was calculated as [formula] where A is urea recovered from unincubated sample (urea added to soil and immediately extracted); B is urea recovered from inhibited sample; and C is urea recovered from the control (uninhibited sample).

[1] = Cazenovia silt loam (New York) pH 7.3
[2] = Wisconsin (Plano silt loam) pH 5.3

SMILES | % Inhibition [1] [%] | % Inhibition [2] [%]
Cc1ccc(S(=O)(=O)NP(N)(N)=O)cc1 [N-(Diaminophosphinyl)-p-toluene-sulfonamide] | 86 | 51
NP(N)(=O)NS(=O)(=O)c1ccccc1 [N-(Diaminophosphinyl)benzenesulfonamide] | 91 | 23
